Experiment [1] has as its target MCL-1/Bim interaction (recombinant human MCL-1 protein, residues 171-327; biotinylated human Bim peptide, residues 51-76) (Homo sapiens (Human), UniProt Q07820). In words: MCL-1/Bim Binding AlphaLISA Assay. Particulars: 0.0625 nM 6xHis-Mcl-1 (171-327), 0.0625 nM biotinylated-Bim peptide. An outline of the steps:
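Protein 0.0625 nM + cpd, 1 h; add biotin-Bim 0.0625 nM, 2 h; acceptor beads 1 h; donor beads 1 h; AlphaScreen read. Buffer 20 mM Hepes pH 7.5, 150 mM NaCl, 1 mM DTT.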
(In Alpha technology, singlet oxygen from a donor bead excites a nearby acceptor bead.)

For another experiment, the system named is SKBR3 cells. Briefly: SKBR3 Cell Viability Assay (CellTiter Glo). In kind it is cell-based. Particulars: Homo sapiens, SK-BR-3, 72 h, CellTiter Glo luminescence, read-out: MCL-1 CV SKBR3 EC50. An outline of the steps: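 Viability read as CellTiter Glo luminescence after 72 h of compound exposure at 37° C./5% CO2, using 6,000 SKBR3 cells per well in McCoy 5A with 10% FBS. Percent inhibition scaled between DMSO wells and 10 μM puromycin wells.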
In general terms: In ATP-based viability assays light output follows the ATP content of the culture.

As usually defined, the IC50 is the concentration needed to halve the response being measured. In general, EC50 refers to the concentration that produces a half-maximal response.

MCL-1/Bim interaction (recombinant human MCL-1 protein, residues 171-327; biotinylated human Bim peptide, residues 51-76), sequence (Q07820 171-327): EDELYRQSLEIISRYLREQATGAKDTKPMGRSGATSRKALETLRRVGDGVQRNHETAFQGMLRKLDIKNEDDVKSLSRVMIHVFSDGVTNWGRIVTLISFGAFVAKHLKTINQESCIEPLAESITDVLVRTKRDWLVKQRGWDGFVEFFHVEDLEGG

Consider `COc1nc(OC)c(C(=O)N[S@@]2(=O)=NC(=O)c3ccc4c(c3)N(C[C@@H]3CC[C@H]3[C@@H](OC)/C=C/C[C@H](C)C2)C[C@@]2(CCCc3cc(Cl)ccc32)CO4)c(OC)n1` [Example 459], for which the IC50 in experiment [1] was found to be 0.085 nM. Also, the concentration for a half-maximal effect (EC50) in the experiment with SKBR3 cells came out at 194 nM.
As for `CO[C@H]1/C=C/C[C@H](C)C[S@@](=O)(NC(=O)c2cnc(C)nc2)=NC(=O)c2ccc3c(c2)N(C[C@@H]2CC[C@H]21)C[C@@]1(CCCc2cc(Cl)ccc21)CO3` [Example 461], the IC50 in experiment [1] is 0.087 nM. For the same molecule, in the experiment on SKBR3 cells, the EC50 was determined as 151 nM.
For `COc1nc(N2CCOCC2)ncc1C(=O)N[S@@]1(=O)=NC(=O)c2ccc3c(c2)N(C[C@@H]2CC[C@H]2[C@@H](OC)/C=C/C[C@H](C)C1)C[C@@]1(CCCc2cc(Cl)ccc21)CO3` [Example 462], the IC50 in experiment [1] turned out to be 0.251 nM. In addition, the EC50 with SKBR3 cells stood at 345 nM.
For `COc1nn(C)cc1C(=O)N[S@@]1(=O)=NC(=O)c2ccc3c(c2)N(C[C@@H]2CC[C@H]2[C@@H](N2CC(OC)C2)/C=C/C[C@H](C)C1)C[C@@]1(CCCc2cc(Cl)ccc21)CO3` [Example 464] the same measures were 0.209 nM and 222 nM.

(Values after US10703733B2, “MCL-1 inhibitors” (Gilead Sciences, Inc., priority 2018, dated 2020).)
